Results taken from patent US8293764B2, “Compositions and methods for disruption of BRCA2-Rad51 interaction” (The Regents of the University of California, priority 2004, dated 2012).
Peptide text beside a SMILES is read from it. * marks the point of attachment. Cbz = O=C(OCc1ccccc1)*

Tested on: Rad51 in MCF-7 cells
Assay: Rad51 stability assay with cyclohexamide
Format: cell-based
Settings: 1 μM MG132, IBR2 treated and control cells
Source text: To examine the impact of IBR2 on Rad51 protein expression, IBR2 treated MCF-7 cells was examined by straight western blot probed with a panel of antibodies against BRCA2, Rad51, Rad50, p84 and Rb. […] Consistent with our FACS analysis (FIG. 4A), the hypo-phosphorylated form of Rb, a marker for G1 phase, was the major form observed in the later time points, further confirming that IBR2 arrests cells at G1 phase (FIG. 4A). It has been reported that BRCA2 level is cell cycle dependent, which expresses low in G1 phase and peaks at G1/S boundary. Therefore the decreased level of BRCA2 in IBR2 treated cells may be due to G1 phase arrest. Different from BRCA2 protein, Rad51 protein is expressed constant throughout the cell cycle in MCF-7 cells (data not shown). Therefore, loss of Rad51 protein may be the direct effect of IBR2 treatment instead of the consequence of G1 arrest. […]
Western blot analysis: Cells were treated with […] or 50 μg/ml cycloheximide (CHX) or 1 μM MG132 and harvested at different time points for western blot analysis. […] The intensity of bands was quantified by densitometry using Labworks 4.5 software. The relative value of the band intensity was calculated with respect to that of untreated sample after normalization with the p84 signal.

CC(C)C[C@@H](C=O)NC(=O)[C@H](CC(C)C)NC(=O)[C@H](CC(C)C)NC(=O)OCc1ccccc1 [MG132, reference compound] (Cbz-Leu-Leu-Leu-aldehyde)
half-life of Rad51 with addition of MG132: prolonged
